From ChEMBL document CHEMBL3046795, “Antifeedant activity of plant extracts and of new natural diglyceride compounds isolated from Ajuga pseudoiva leaves against Spodoptera littoralis larvae” (2001)

Key:
Format in all cases: functional
Spodoptera littoralis [1] = test: Antifeedant activity against Spodoptera littoralis measured at 100 mg/l after 8 to 24 hr by behavioral bioassay
Spodoptera littoralis [2] = test: Antifeedant activity against Spodoptera littoralis measured at 10 mg/l after 8 to 24 hr by behavioral bioassay
Spodoptera littoralis [3] = test: Antifeedant activity against Spodoptera littoralis measured at 1 mg/l after 8 to 24 hr by behavioral bioassay
Spodoptera littoralis [4] = test: Antifeedant activity against Spodoptera littoralis measured at 50 mg/l after 8 to 24 hr by behavioral bioassay

CCCCCCCCCCCCCC(O)CC(=O)OC (stereo not drawn) [3-HYDROXYHEXADECANOIC ACID METHYL ESTER]
AFI (Spodoptera littoralis [1]): 45%
AFI (Spodoptera littoralis [2]): 9.1%
AFI (Spodoptera littoralis [3]): -3.5%
AFI (Spodoptera littoralis [4]): 32%

C=C(C)[C@@H](CC)CC[C@@H](C)[C@H]1CC[C@H]2[C@@H]3CC=C4C[C@@H](O)CC[C@]4(C)[C@H]3CC[C@]12C [CLEROSTEROL]
AFI (Spodoptera littoralis [1]): 3.3%
AFI (Spodoptera littoralis [4]): -15.3%

C=C(C)[C@@H](CC)CC[C@@H](C)[C@H]1CC[C@H]2[C@@H]3CC=C4C[C@@H](OC(=O)CCC)CC[C@]4(C)[C@H]3CC[C@]12C [MIGHAVIDE]
AFI (Spodoptera littoralis [1]): 10.3%
AFI (Spodoptera littoralis [4]): -0.5%
